According to patent US12097202B2 (Kadmon Corporation, LLC, priority 2022, dated 2024):
Counter-ions that a name gives are not always drawn.

Assay: Solubility of belumosudil mesylate
Assay type: physicochemical

Which “solubility in DMSO” value (DMSO) does the source give for `CC(C)NC(=O)COc1cccc(-c2nc(Nc3ccc4[nH]ncc4c3)c3ccccc3n2)c1` [Belumosudil mesylate, 2-{3-[4-(1H-indazol-5-ylamino)-2-quinazolinyl]phenoxy}-N-(propan-2-yl) acetamide methanesulfonate (1:1)] here?
The value was “soluble”.

And the “solubility in methanol and DMF” value (methanol and DMF)?
The value was “slightly soluble”.

And the solubility in water (water)?
Its solubility in water is “practically insoluble”.
